In brackets after ≈: the same amount, converted by molar mass. Read-outs that look alike come from different tables or passages of the source. Peptide text beside a SMILES is read from it.
Tests used:
serotonin receptor HTR2B = experiment: IPP: serotonin receptor HTR2B binding; settings: low-risk exposure scenario
From the text: (§1) In vitro pharmacological profiling is used to measure specific and high affinity non-covalent binding interactions between chemicals of interest and various targets with known safety liabilities. These targets include G protein coupled receptors (GPCRs), nuclear hormone receptors (NHRs), ion channels and enzymes. For this evaluation we included 72 targets of interest a full list of which is available in Supplementary Data Sheet 5, across a range of radioligand binding, enzymatic and protein-protein interaction assays run in binding mode only.
(§2) The process for deriving a PoD for each of the 72 targets consisted of a two-step method that has been widely adopted when conducting in vitro pharmacological profiling experiments ([Brennan et al., 2024]). […] Targets showing an inhibition or stimulation greater than 50% of a maximal response produced by a reference compound are followed up in a second phase which includes an eight-point concentration response (in two replicates). […] EC50 values (concentration producing a half-maximal response) and IC50 values (concentration causing a half-maximal inhibition of the control agonist response) were determined by the Bayesian probabilistic model of the concentration-response curves and the Hill equation as per ([Labelle et al., 2019]). […] Calculated IC50s were taken forwards as the IPP PoDs ([Middleton et al., 2022]). […]

[1] = cited from earlier work; for MoS: existent consumer risk assessment for the cosmetic use scenario, ref SCCS / SCCP / SCCNFP
[2] = Human in vivo PK data: concentration-dose ratio (CDR) and toxicokinetic variability factor (TKVF);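 further: Literature-pooled human in vivo PK data, plasma, serum or cord blood concentrations per daily dose, weighted by study population size across non-pregnant, pregnant and fetal groups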
mice = system: mice; design: method as in Supplementary Data Sheet 1; settings: ref Supplementary Data Sheet 1, cited from earlier work
[3] = system: human developmental and reproductive toxicity; settings: ref Supplementary Data Sheet 1, cited from earlier work
[4] = system: developmental or reproductive toxicity in animal or human; settings: evidence of developmental or reproductive toxicity in animal or human, irrespective of exposure/dose; ref Supplementary Data Sheet 1; cited from earlier work
[5] = hepatic intrinsic clearance, CLint (PBK parameter); assay type: in vitro ADME
[6] = human
[7] = cited from earlier work
rabbits = system: rabbits; design: method as in Supplementary Data Sheet 1; settings: rabbits; ref Supplementary Data Sheet 1; cited from earlier work
rats = settings: ref Supplementary Data Sheet 1, cited from earlier work
[8] = ref PubChem; cited from earlier work
[9] = renal clearance, Fup*GFR (PBK parameter); settings: method Fup*GFR
thyroid peroxidase (TPO) = experiment: IPP: thyroid peroxidase (TPO) binding; settings: low-risk exposure scenario
From the text: as §1, §2

[10] = cited from earlier work; remark: listed apart in the source
[11] = water solubility (PBK parameter); assay type: physicochemical; settings: Solubility pH 6.99, optimised based on [13], read-out: Aqueous Solubility
[12] = unbound fraction in plasma, fup (PBK parameter); assay type: in vitro ADME; settings: optimised based on [13]
[13] = ref Supplementary Data Sheet 1, cited from earlier work
hamsters = system: hamsters; design: method as in Supplementary Data Sheet 1; settings: ref Supplementary Data Sheet 1; cited from earlier work
pigtail monkeys = system: pigtail monkeys; design: method as in Supplementary Data Sheet 1; settings: the only dose tested, ref Supplementary Data Sheet 1; cited from earlier work
[14] = Bioactivity exposure ratio (BER): minimum platform PoD / estimated Cmax; settings: low-risk scenario of normal dietary exposure to retinol and its metabolite
[15] = design: method as in earlier work; settings: ref [3]; cited from earlier work

Q: Which “BER from binding to the serotonin receptor HTR2B” value (serotonin receptor HTR2B) does the source give for `CCOC(=O)c1ccccc1C(=O)OCC` [Diethyl phthalate (DEP), Diethyl phthalate] here?
A: Its value is less than 1.

Q: And the MoS [1]?
A: The MoS was “Used safely in cosmetic products. Existent safety assessment from the SCCNFP. MoS 161”.

Q: For `O=C1CN(/N=C/c2ccc([N+](=O)[O-])o2)C(=O)N1` [Nitrofurantoin], which “CDR fold difference to non-pregnant” value ([2]; female, human, in vivo) is on record?
A: The value was 1.29.

Q: What about the “CDR fold difference to pregnant” value ([2]; female, human, in vivo) of the same compound?
A: Its value is 1.00.

Q: What about the TKVF ([2]; female, human, in vivo) of the same compound?
A: Its TKVF is 5.73.

Q: And the “CDR fold difference to pregnant” value ([2]; human, in vivo)?
A: Its value is 1.74.

Q: And the “95% percentile (Conc-dose-ratio)” value ([2]; human, in vivo, po)?
A: The value was 0.11.

Q: What about the “Fold Difference to non-pregnant” value ([2]; human, in vivo, po) of the same compound?
A: Its value is 1.00.

Q: What about the “Mean Conc-dose -ratio” value ([2]; human, in vivo, po) of the same compound?
A: The value was 0.033 uM/(mg/day].

Q: What about the TKVF ([2]; human, in vivo, po) of the same compound?
A: The TKVF was 3.36.

Q: And the “multiple of human dose with growth retardation and low incidence of minor and common malformations” value (mice; based on mg/kg administered to the dam)?
A: Its value is 68 times.

Q: And the “multiple of human dose at which fetal malformations were not observed” value (mice)?
A: Its value is 25 times.

Q: And the “Exposure risk (DART risk classification)” value ([3]; Pharmaceutical, 200 mg/daily, oral)?
A: Its value is “High Risk”.

Q: And the “DART Hazard Call” value [4]?
A: The value was “Uncertain”.

Q: With `CCOC(=O)c1ccccc1C(=O)OCC` [Diethyl phthalate] as the compound, how does the “Intrinsic Liver Clearance” value [5] read?
A: The value was 596.6 L/h.

Q: What about the “Renal Clearance” value [6] of the same compound?
A: Its value is 1.371 L/h.

Q: What about the Fup ([7]; ref [19]) of the same compound?
A: Its Fup is 19%.

Q: For `CN(C)C(=N)N=C(N)N` [Metformin], which “CDR fold difference to non-pregnant” value ([2]; female, human, in vivo) is on record?
A: Its value is 0.73.

Q: And the “CDR fold difference to pregnant” value ([2]; female, human, in vivo)?
A: The value was 1.00.

Q: What about the TKVF ([2]; female, human, in vivo) of the same compound?
A: The TKVF was 2.75.

Q: What about the “95% percentile (Conc-dose-ratio)” value ([2]; female, human, in vivo, po) of the same compound?
A: Its value is 0.0213.

Q: And the “Fold Difference to non-pregnant” value ([2]; female, human, in vivo, po)?
A: Its value is 0.73.

Q: What about the “Fold Difference to pregnant” value ([2]; female, human, in vivo, po) of the same compound?
A: Its value is 1.00.

Q: And the “Mean Conc-dose -ratio” value ([2]; female, human, in vivo, po)?
A: Its value is 0.008 uM/(mg/day].

Q: And the TKVF ([2]; female, human, in vivo, po)?
A: The TKVF was 2.75.

Q: What about the “CDR fold difference to pregnant” value ([2]; human, in vivo) of the same compound?
A: The value was 0.56.

Q: What about the “Fold Difference to pregnant” value ([2]; human, in vivo, po) of the same compound?
A: Its value is 0.56.

Q: What about the “highest dose not teratogenic” value (rabbits) of the same compound?
A: The value was 600 mg/kg/day.

Q: What about the “Exposure risk (DART risk classification)” value ([3]; Pharmaceutical, 2,000 mg/daily, oral) of the same compound?
A: The value was “Low Risk”.

Q: What about the “DART Hazard Call” value [4] of the same compound?
A: Its value is “Non Toxic”.

Q: What about the “highest dose not teratogenic” value (rats; rats) of the same compound?
A: The value was 600 mg/kg/day.

Q: What does the source list for `CCCCC(CC)C(=O)O` (stereo not shown) [2-Ethylhexanoic acid (2-EHA), 2-Ethylhexanoic acid]?
A: Intrinsic Liver Clearance ([5]; optimised based on [16]): 7.128 L/h; pKa Value ACID [8]: 4.8; developmental NOAEL (rats; 2 rat studies, clubfoot/reduced skeletal ossification): 100 mg/kg bw/day; NOAEL for parental effects (rats; EOGRT in rats): 250 mg/kg bw/d; Renal Clearance [9]: 0.008 L/h

Q: With `Cc1c(O)cccc1O` [2-Methylresorcinol] as the compound, how does the “BER from thyroid peroxidase (TPO) binding” value (thyroid peroxidase (TPO)) read?
A: Its value is less than 1.

Q: And the “Exposure risk (DART risk classification)” value ([3]; Cosmetic, […] in hair colourant, dermal)?
A: Its value is “Low Risk”.

Q: What about the “DART Hazard Call” value [4] of the same compound?
A: The value was “Non Toxic”.

Q: What about the “Aqueous Solubility” value ([10]; Solubility pH 4.91, ref [7]) of the same compound?
A: The value was 263 mg/mL.

Q: And the MoS [1]?
A: The MoS was “Used safely in cosmetic products. Existent consumer risk assessment from the SCCS. MoS >4000”.

Q: What about the “Renal Clearance” value [9] of the same compound?
A: The value was 4.792 L/h.

Q: Which results are given for `Cc1cc(C(C)(C)C)c(O)c(C(C)(C)C)c1` [Butylated hydroxytoluene (BHT), Butylated hydroxytoluene]?
A: TKVF ([2]; Non-Pregnant, oral): 2.5; solubility [11]: 0.005 mg/mL (≈ 22.7 µM); Fup [12]: 0.33%; Intrinsic Liver Clearance ([5]; optimised based on [13]): 22540.4 L/h; MoS [1]: Used safely in cosmetic products. Existent consumer risk assessment from the SCCS. MoS >3000.; offspring NOAEL ([13]; OECD 416, effects on litter size, sex ratio and pup body weight gain): OECD 416: 0, ~25, ~100 and ~280 mg/kg/day. Effects on offspring. Offspring NOAEL of 25 mg/kg bw/day based on effects on litter size, sex ratio and pup body weight gain.; Renal Clearance [9]: 0.02382 L/h

Q: Which “CDR fold difference to non-pregnant” value ([2]; female, human, in vivo) does the source give for `CC1=C(/C=C/C(C)=C/C=C/C(C)=C/C(=O)O)C(C)(C)CCC1` [all-trans-retinoic acid (ATRA), all-trans-retinoic acid] here?
A: Its value is 0.77.

Q: And the “CDR fold difference to pregnant” value ([2]; female, human, in vivo)?
A: Its value is 1.00.

Q: What about the TKVF ([2]; female, human, in vivo) of the same compound?
A: Its TKVF is 1.47.

Q: What about the “CDR fold difference to pregnant” value ([2]; human, in vivo) of the same compound?
A: The value was 0.71.

Q: And the “dose above which gross external, soft tissue and skeletal alterations occurred” value (from here on “dose above which gross external”) (mice)?
A: The value was greater than 0.7 mg/kg/day.

Q: And the “dose above which gross external” value (hamsters)?
A: Its value is greater than 7 mg/kg/day.

Q: And the “dose at which gross external, soft tissue and skeletal alterations occurred” value (pigtail monkeys)?
A: Its value is 10 mg/kg/day.

Q: And the “Exposure risk (DART risk classification)” value ([3]; Dietary, <10,000 IU Retinol, oral)?
A: The value was “Low Risk”.

Q: What about the “Exposure risk (DART risk classification)” value ([3]; Pharmaceutical, 80 mg/daily, oral) of the same compound?
A: Its value is “High Risk”.

Q: What about the “Exposure risk (DART risk classification)” value ([3]; Pharmaceutical, 0.1% cream, dermal) of the same compound?
A: Its value is “Uncertain Risk”.

Q: And the “DART Hazard Call” value [4]?
A: The value was “Toxic”.

Q: And the “dose above which gross external” value (rats; rats)?
A: The value was greater than 2 mg/kg/day.

Q: What about the BER [14] of the same compound?
A: The BER was less than 1.

Q: With `COC(=O)[C@H](Cc1ccccc1)NC(=O)[C@@H](N)CC(=O)O` [Aspartame] (H-Asp-Phe-OMe) as the compound, how does the “Intrinsic Liver Clearance” value ([5]; scaled from [6]) read?
A: Its value is 400.2 L/h.

Q: And the “Exposure risk (DART risk classification)” value ([3]; Dietary, 2,400 mg/daily, oral)?
A: The value was “Low Risk”.

Q: What about the “Aqueous Solubility” value ([10]; Solubility pH 2.2, ref [4]) of the same compound?
A: Its value is 20 mg/mL.

Q: What about the Fup ([7]; ref [6]) of the same compound?
A: The Fup was 83.8%.

Q: And the ADI ([1]; ref FSCJ, EFSA, SCF, JMPR as named in the cell)?
A: Its ADI is “ADI set by EFSA (40 mg/kg/day)”.

Q: And the “Renal Clearance” value [9]?
A: Its value is 6.049 L/h.

Q: With `Nc1cc([N+](=O)[O-])cc(Cl)c1O` [2-Amino-6-chloro-4-nitrophenol] as the compound, how does the Peff [15] read?
A: Its Peff is 7.96 cm/s x E-04.

Q: And the “Exposure risk (DART risk classification)” value ([3]; Cosmetic, 2% in hair colourant, dermal)?
A: The value was “Low Risk”.

Q: What about the “DART Hazard Call” value [4] of the same compound?
A: The value was “Non Toxic”.

Q: And the “Aqueous Solubility” value ([10]; Solubility pH 5.04, ref [1])?
A: Its value is 450 mg/mL.

Q: What about the Fup ([7]; ref [2]) of the same compound?
A: Its Fup is 0.47%.

Q: What about the MoS [1] of the same compound?
A: Its MoS is “Used safely in cosmetic products. Existent consumer risk assessment from the SCCP. MoS >400”.

Q: What about the “NOAEL for maternal toxicity” value [13] of the same compound?
A: Its value is 30 mg/kg bw.

Q: What about the “Renal Clearance” value [9] of the same compound?
A: Its value is 0.034 L/h.

— publication PMC12256496, “An advancement in developmental and reproductive toxicity (DART) risk assessment: evaluation of a bioactivity and exposure-based NAM toolbox” (Frontiers in Toxicology, 2025)
